{"source": "patent US11414379B2", "about": "“SPAK kinase inhibitors as neuroprotective agents” (United States Government as represented by the Department …, priority 2018, dated 2022)", "assay_in_all_cases": "Kinase panel (Dundee profiling)", "assay_type_in_all_cases": "biochemical", "details_in_all_cases": "read-out: % residual kinase activity", "key": {"[1]": {"biological_target": "NEK2a (Homo sapiens, UniProt P51955)", "protocol": "(§1) The kinase selectivity of ZT-1a was further assessed using standard radioisotopic enzymatic assays against a panel of 140 recombinant kinases (Dundee profiling, Table 2) (Bain et al. (2007) The Biochemical journal 408, 297-315). ZT-1a at a concentration of 10 μM inhibited only MAPKAP-K2 activity 85±7% compared to DMSO control, representing high kinase selectivity.\n(§2) Referring to Table 2, ZT-1a was tested at 10 and 1 μM against a panel of 140 recombinant kinases in an enzymatic activity-based assay performed by the International Centre for Kinase Profiling in the MRC Protein Phosphorylation and Ubiquitylation Unit. Values represent % residual kinase activity (mean+/−SEM, n=3). Kinases labelled with an asterick* are inhibited ≥50% by ZT-1a."}, "[2]": {"biological_target": "ZAP70 (Homo sapiens, UniProt P43403)", "protocol": "as §1, §2"}, "[3]": {"biological_target": "ERK1 (Homo sapiens, UniProt P27361)", "protocol": "as §1, §2"}, "[4]": {"biological_target": "p38a MAPK (Homo sapiens, UniProt Q16539)", "sequence (Q16539 whole entry)": "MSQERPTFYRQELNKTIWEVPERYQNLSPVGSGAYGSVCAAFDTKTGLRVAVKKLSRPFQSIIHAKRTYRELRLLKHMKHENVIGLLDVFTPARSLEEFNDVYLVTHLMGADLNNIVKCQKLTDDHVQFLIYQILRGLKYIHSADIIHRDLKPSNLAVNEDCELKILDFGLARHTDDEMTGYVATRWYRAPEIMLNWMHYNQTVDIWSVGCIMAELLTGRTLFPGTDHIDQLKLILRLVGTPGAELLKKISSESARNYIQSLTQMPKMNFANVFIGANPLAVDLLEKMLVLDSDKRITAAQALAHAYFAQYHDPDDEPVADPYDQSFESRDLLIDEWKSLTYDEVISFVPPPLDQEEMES", "protocol": "as §1, §2"}, "[5]": {"biological_target": "TTBK1 (Homo sapiens, UniProt Q5TCY1)", "protocol": "as §1, §2"}, "[6]": {"biological_target": "TAO1 (Homo sapiens, UniProt Q7L7X3)", "protocol": "as §1, §2"}, "[7]": {"biological_target": "PDK1 (Homo sapiens, UniProt O15530)", "sequence (O15530 whole entry)": "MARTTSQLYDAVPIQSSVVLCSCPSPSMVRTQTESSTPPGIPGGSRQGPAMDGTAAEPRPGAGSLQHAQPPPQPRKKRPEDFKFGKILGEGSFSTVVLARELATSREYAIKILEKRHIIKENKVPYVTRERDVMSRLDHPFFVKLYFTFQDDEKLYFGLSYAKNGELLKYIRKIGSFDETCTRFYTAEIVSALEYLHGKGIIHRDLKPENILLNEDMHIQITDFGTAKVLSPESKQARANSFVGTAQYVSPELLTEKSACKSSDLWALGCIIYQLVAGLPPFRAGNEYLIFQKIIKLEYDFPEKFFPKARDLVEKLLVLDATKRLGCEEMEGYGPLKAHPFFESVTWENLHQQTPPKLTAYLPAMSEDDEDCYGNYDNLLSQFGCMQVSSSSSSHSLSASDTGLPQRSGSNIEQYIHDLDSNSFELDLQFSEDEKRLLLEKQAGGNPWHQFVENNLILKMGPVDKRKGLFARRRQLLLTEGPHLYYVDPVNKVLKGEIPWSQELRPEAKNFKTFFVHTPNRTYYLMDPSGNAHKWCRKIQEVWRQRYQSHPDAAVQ", "protocol": "as §1, §2"}, "[8]": {"biological_target": "IKKe (Homo sapiens, UniProt Q14164)", "protocol": "as §1, §2"}, "[9]": {"biological_target": "TrkA (Homo sapiens, UniProt P04629)", "protocol": "as §1, §2"}, "[10]": {"biological_target": "PIM1 (Homo sapiens, UniProt P11309)", "sequence (P11309 whole entry, species assumed)": "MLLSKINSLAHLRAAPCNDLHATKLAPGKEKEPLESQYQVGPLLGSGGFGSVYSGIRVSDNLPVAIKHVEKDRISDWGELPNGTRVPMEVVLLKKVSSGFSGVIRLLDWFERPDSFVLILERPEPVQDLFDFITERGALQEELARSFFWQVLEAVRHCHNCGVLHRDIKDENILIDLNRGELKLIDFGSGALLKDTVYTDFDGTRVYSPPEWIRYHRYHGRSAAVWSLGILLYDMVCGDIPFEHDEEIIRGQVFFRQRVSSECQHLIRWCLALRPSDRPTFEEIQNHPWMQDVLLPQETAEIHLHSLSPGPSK", "protocol": "as §1, §2"}, "[11]": {"biological_target": "CSK (Homo sapiens, UniProt P41240)", "protocol": "as §1, §2"}, "[12]": {"biological_target": "DDR2 (Homo sapiens, UniProt Q16832)", "protocol": "as §1, §2"}, "[13]": {"biological_target": "DAPK1 (Homo sapiens, UniProt P53355)", "sequence (P53355 whole entry, species assumed)": "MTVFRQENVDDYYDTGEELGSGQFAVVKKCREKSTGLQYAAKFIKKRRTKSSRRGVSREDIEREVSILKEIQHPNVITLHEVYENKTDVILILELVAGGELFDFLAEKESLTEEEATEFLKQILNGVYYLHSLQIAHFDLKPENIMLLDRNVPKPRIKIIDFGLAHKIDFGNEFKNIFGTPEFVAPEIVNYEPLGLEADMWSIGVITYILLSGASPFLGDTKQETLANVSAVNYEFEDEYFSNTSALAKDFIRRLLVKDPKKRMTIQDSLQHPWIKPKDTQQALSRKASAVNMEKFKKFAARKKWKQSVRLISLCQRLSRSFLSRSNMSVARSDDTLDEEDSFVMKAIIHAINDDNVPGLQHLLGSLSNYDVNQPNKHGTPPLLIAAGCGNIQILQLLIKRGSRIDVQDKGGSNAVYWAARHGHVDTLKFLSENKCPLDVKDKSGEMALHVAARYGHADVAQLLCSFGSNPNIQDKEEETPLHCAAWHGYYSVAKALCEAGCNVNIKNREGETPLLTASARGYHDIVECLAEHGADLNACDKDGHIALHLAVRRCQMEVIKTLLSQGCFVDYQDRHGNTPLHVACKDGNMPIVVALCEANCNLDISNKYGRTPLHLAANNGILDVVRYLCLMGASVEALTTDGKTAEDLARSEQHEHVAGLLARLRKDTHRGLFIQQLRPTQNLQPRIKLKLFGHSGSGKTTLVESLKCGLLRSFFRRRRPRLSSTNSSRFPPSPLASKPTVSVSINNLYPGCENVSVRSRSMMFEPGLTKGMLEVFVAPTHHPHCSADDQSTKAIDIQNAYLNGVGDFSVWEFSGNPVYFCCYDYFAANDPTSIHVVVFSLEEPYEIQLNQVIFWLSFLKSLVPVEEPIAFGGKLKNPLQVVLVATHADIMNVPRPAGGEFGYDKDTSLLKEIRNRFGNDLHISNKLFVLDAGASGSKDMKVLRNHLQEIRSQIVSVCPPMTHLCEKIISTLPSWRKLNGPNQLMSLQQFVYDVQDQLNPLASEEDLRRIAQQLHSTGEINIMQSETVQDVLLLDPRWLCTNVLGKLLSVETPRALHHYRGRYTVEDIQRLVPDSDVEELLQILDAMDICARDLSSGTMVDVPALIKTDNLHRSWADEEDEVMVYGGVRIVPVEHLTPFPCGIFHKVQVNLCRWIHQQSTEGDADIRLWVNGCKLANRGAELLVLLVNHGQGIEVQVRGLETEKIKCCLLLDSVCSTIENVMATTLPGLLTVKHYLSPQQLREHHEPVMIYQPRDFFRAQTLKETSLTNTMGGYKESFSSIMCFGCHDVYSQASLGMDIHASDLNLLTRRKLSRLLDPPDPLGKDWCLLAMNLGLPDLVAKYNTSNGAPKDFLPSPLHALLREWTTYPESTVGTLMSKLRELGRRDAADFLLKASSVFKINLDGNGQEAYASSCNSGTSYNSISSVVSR", "protocol": "as §1, §2"}, "[14]": {"biological_target": "CDK2-Cyclin A (Homo sapiens, UniProt P24941)", "protocol": "as §1, §2"}, "[15]": {"biological_target": "WNK1 (Homo sapiens, UniProt Q9H4A3)", "protocol": "as §1, §2"}, "[16]": {"biological_target": "FGF-R1 (Homo sapiens, UniProt P11362)", "protocol": "as §1, §2"}, "[17]": {"biological_target": "ERK2 (Homo sapiens, UniProt P28482)", "protocol": "as §1, §2"}, "[18]": {"biological_target": "TIE2 (Homo sapiens, UniProt Q02763)", "protocol": "as §1, §2"}, "[19]": {"biological_target": "MINK1 (Homo sapiens, UniProt Q8N4C8)", "protocol": "as §1, §2"}, "[20]": {"biological_target": "HER4 (Homo sapiens, UniProt Q15303)", "protocol": "as §1, §2"}, "[21]": {"biological_target": "SIK3 (Homo sapiens, UniProt Q9Y2K2)", "protocol": "as §1, §2"}, "[22]": {"biological_target": "MARK1 (Homo sapiens, UniProt Q9P0L2)", "protocol": "as §1, §2"}, "[23]": {"biological_target": "EPH-B3 (Homo sapiens, UniProt P54753)", "protocol": "as §1, §2"}, "[24]": {"biological_target": "EIF2AK3 (Homo sapiens, UniProt Q9NZJ5)", "sequence (Q9NZJ5 30-1116, species assumed)": "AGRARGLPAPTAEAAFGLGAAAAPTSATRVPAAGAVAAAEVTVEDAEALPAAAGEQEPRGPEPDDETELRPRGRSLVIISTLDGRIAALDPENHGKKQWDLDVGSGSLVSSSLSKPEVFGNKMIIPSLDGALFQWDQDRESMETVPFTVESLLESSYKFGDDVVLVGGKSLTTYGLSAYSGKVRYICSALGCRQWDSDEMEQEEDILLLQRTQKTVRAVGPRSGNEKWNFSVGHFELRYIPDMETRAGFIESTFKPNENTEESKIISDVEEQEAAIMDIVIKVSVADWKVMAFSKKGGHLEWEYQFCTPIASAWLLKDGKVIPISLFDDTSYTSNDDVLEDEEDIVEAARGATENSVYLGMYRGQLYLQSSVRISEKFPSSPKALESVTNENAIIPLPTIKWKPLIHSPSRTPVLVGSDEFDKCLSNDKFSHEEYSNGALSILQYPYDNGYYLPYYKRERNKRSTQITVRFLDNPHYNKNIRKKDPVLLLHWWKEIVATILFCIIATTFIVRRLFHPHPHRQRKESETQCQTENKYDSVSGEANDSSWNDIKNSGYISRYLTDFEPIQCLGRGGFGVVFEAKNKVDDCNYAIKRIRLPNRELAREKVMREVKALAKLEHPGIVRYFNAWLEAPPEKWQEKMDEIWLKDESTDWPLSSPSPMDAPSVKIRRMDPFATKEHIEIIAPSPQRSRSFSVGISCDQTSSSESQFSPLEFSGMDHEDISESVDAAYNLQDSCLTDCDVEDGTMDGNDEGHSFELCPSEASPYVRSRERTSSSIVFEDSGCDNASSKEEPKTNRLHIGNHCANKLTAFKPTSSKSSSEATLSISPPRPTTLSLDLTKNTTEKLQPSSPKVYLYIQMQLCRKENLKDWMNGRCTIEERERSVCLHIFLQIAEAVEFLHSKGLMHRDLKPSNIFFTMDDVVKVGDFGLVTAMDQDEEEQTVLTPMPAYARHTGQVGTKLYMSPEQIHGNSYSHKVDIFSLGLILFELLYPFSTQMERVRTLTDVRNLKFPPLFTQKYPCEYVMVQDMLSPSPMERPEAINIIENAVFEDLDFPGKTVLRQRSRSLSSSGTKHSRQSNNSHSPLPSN", "protocol": "as §1, §2"}, "[25]": {"biological_target": "MST2 (Homo sapiens, UniProt Q13188)", "protocol": "as §1, §2"}, "[26]": {"biological_target": "IRAK1 (Homo sapiens, UniProt P51617)", "protocol": "as §1, §2"}, "[27]": {"biological_target": "PDGFRA (Homo sapiens, UniProt P16234)", "protocol": "as §1, §2"}, "[28]": {"biological_target": "MARK4 (Homo sapiens, UniProt Q96L34)", "sequence (Q96L34 whole entry, species assumed)": "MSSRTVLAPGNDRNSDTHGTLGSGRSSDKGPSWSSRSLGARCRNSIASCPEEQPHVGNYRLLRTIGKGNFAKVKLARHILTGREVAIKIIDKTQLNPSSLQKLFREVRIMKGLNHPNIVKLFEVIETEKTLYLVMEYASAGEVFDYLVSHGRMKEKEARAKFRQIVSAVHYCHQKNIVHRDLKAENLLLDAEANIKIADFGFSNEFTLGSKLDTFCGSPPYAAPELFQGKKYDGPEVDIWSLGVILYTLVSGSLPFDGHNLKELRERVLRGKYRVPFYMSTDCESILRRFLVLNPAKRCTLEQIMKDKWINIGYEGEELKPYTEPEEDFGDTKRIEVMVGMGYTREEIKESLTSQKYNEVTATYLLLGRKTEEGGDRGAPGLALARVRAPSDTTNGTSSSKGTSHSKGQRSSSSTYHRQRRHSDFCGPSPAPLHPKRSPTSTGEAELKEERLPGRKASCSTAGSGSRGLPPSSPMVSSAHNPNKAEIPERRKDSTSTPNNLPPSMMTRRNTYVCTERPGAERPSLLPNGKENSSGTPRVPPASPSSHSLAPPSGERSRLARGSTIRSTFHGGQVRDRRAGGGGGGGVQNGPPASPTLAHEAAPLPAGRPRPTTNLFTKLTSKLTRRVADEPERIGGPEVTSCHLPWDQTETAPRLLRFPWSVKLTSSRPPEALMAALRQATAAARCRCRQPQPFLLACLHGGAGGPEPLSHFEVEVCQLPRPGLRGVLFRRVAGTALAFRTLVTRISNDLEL", "protocol": "as §1, §2"}, "[29]": {"biological_target": "PHK (Homo sapiens, UniProt Q16816)", "protocol": "as §1, §2"}, "[30]": {"biological_target": "BRSK1 (Homo sapiens, UniProt Q8TDC3)", "protocol": "as §1, §2"}, "[31]": {"biological_target": "NEK6 (Homo sapiens, UniProt Q9HC98)", "sequence (Q9HC98 whole entry, species assumed)": "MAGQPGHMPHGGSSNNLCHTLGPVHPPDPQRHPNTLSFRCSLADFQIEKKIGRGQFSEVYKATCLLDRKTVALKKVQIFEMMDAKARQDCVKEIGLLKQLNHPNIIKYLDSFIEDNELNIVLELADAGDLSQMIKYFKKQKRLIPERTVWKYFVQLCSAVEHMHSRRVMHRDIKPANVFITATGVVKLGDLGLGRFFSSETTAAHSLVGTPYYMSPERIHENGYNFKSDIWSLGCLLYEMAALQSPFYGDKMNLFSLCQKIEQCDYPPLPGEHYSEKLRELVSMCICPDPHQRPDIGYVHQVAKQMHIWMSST", "protocol": "as §1, §2"}, "[32]": {"biological_target": "IRAK4 (Homo sapiens, UniProt Q9NWZ3)", "protocol": "as §1, §2"}}}
{"smiles": "Cc1cc(C(C#N)c2ccc(Cl)cc2)c(Cl)cc1NC(=O)c1cc(Cl)ccc1O", "note": "(stereo not shown) [ZT-1a, 5-chloro-N-(5-chloro-4-((4-chlorophenyl)(cyano)methyl)-2-methylphenyl)-2-hydroxy-benzamide]", "values": [{"measurement": "remaining activity at 1 µM", "setting": "[1]; 1 μM", "value": "85 ± 12", "unit": "%"}, {"measurement": "remaining activity at 10 µM", "setting": "[1]; 10 μM", "value": "91 ± 6", "unit": "%"}, {"measurement": "remaining activity at 1 µM", "setting": "[2]; 1 μM", "value": "120 ± 1", "unit": "%"}, {"measurement": "remaining activity at 10 µM", "setting": "[2]; 10 μM", "value": "97 ± 9", "unit": "%"}, {"measurement": "remaining activity at 1 µM", "setting": "[3]; 1 μM", "value": "107 ± 16", "unit": "%"}, {"measurement": "remaining activity at 10 µM", "setting": "[3]; 10 μM", "value": "109 ± 18", "unit": "%"}, {"measurement": "remaining activity at 1 µM", "setting": "[4]; 1 μM", "value": "128 ± 7", "unit": "%"}, {"measurement": "remaining activity at 10 µM", "setting": "[4]; 10 μM", "value": "113 ± 2", "unit": "%"}, {"measurement": "remaining activity at 1 µM", "setting": "[5]; 1 μM", "value": "119 ± 5", "unit": "%"}, {"measurement": "remaining activity at 10 µM", "setting": "[5]; 10 μM", "value": "102 ± 2", "unit": "%"}, {"measurement": "remaining activity at 1 µM", "setting": "[6]; 1 μM", "value": "66 ± 2", "unit": "%"}, {"measurement": "remaining activity at 10 µM", "setting": "[6]; 10 μM", "value": "104 ± 2", "unit": "%"}, {"measurement": "remaining activity at 1 µM", "setting": "[7]; 1 μM", "value": "92 ± 6", "unit": "%"}, {"measurement": "remaining activity at 10 µM", "setting": "[7]; 10 μM", "value": "69 ± 17", "unit": "%"}, {"measurement": "remaining activity at 1 µM", "setting": "[8]; 1 μM", "value": "87 ± 13", "unit": "%"}, {"measurement": "remaining activity at 10 µM", "setting": "[8]; 10 μM", "value": "59 ± 5", "unit": "%"}, {"measurement": "remaining activity at 1 µM", "setting": "[9]; 1 μM", "value": "108 ± 9", "unit": "%"}, {"measurement": "remaining activity at 10 µM", "setting": "[9]; 10 μM", "value": "91 ± 7", "unit": "%"}, {"measurement": "remaining activity at 1 µM", "setting": "[10]; 1 μM", "value": "108 ± 19", "unit": "%"}, {"measurement": "remaining activity at 10 µM", "setting": "[10]; 10 μM", "value": "101 ± 8", "unit": "%"}, {"measurement": "remaining activity at 1 µM", "setting": "[11]; 1 μM", "value": "96 ± 8", "unit": "%"}, {"measurement": "remaining activity at 10 µM", "setting": "[11]; 10 μM", "value": "106 ± 29", "unit": "%"}, {"measurement": "remaining activity at 1 µM", "setting": "[12]; 1 μM", "value": "111 ± 20", "unit": "%"}, {"measurement": "remaining activity at 10 µM", "setting": "[12]; 10 μM", "value": "99 ± 8", "unit": "%"}, {"measurement": "remaining activity at 1 µM", "setting": "[13]; 1 μM", "value": "131 ± 8", "unit": "%"}, {"measurement": "remaining activity at 10 µM", "setting": "[13]; 10 μM", "value": "159 ± 11", "unit": "%"}, {"measurement": "remaining activity at 1 µM", "setting": "[14]; 1 μM", "value": "128 ± 12", "unit": "%"}, {"measurement": "remaining activity at 10 µM", "setting": "[14]; 10 μM", "value": "125 ± 6", "unit": "%"}, {"measurement": "remaining activity at 1 µM", "setting": "[15]; 1 μM", "value": "125 ± 17", "unit": "%"}, {"measurement": "remaining activity at 10 µM", "setting": "[15]; 10 μM", "value": "122 ± 35", "unit": "%"}, {"measurement": "remaining activity at 1 µM", "setting": "[16]; 1 μM", "value": "93 ± 6", "unit": "%"}, {"measurement": "remaining activity at 10 µM", "setting": "[16]; 10 μM", "value": "101 ± 15", "unit": "%"}, {"measurement": "remaining activity at 1 µM", "setting": "[17]; 1 μM", "value": "111 ± 25", "unit": "%"}, {"measurement": "remaining activity at 10 µM", "setting": "[17]; 10 μM", "value": "75 ± 3", "unit": "%"}, {"measurement": "remaining activity at 1 µM", "setting": "[18]; 1 μM", "value": "139 ± 74", "unit": "%"}, {"measurement": "remaining activity at 10 µM", "setting": "[18]; 10 μM", "value": "73 ± 11", "unit": "%"}, {"measurement": "remaining activity at 1 µM", "setting": "[19]; 1 μM", "value": "107 ± 5", "unit": "%"}, {"measurement": "remaining activity at 10 µM", "setting": "[19]; 10 μM", "value": "108 ± 6", "unit": "%"}, {"measurement": "remaining activity at 1 µM", "setting": "[20]; 1 μM", "value": "85 ± 8", "unit": "%"}, {"measurement": "remaining activity at 10 µM", "setting": "[20]; 10 μM", "value": "84 ± 1", "unit": "%"}, {"measurement": "remaining activity at 1 µM", "setting": "[21]; 1 μM", "value": "104 ± 9", "unit": "%"}, {"measurement": "remaining activity at 10 µM", "setting": "[21]; 10 μM", "value": 88, "unit": "%"}, {"measurement": "remaining activity at 1 µM", "setting": "[22]; 1 μM", "value": "104 ± 16", "unit": "%"}, {"measurement": "remaining activity at 10 µM", "setting": "[22]; 10 μM", "value": "91 ± 5", "unit": "%"}, {"measurement": "remaining activity at 1 µM", "setting": "[23]; 1 μM", "value": "88 ± 6", "unit": "%"}, {"measurement": "remaining activity at 10 µM", "setting": "[23]; 10 μM", "value": "84 ± 6", "unit": "%"}, {"measurement": "remaining activity at 1 µM", "setting": "[24]; 1 μM", "value": "114 ± 2", "unit": "%"}, {"measurement": "remaining activity at 10 µM", "setting": "[24]; 10 μM", "value": "100 ± 3", "unit": "%"}, {"measurement": "remaining activity at 1 µM", "setting": "[25]; 1 μM", "value": "115 ± 4", "unit": "%"}, {"measurement": "remaining activity at 10 µM", "setting": "[25]; 10 μM", "value": "113 ± 2", "unit": "%"}, {"measurement": "remaining activity at 1 µM", "setting": "[26]; 1 μM", "value": "128 ± 2", "unit": "%"}, {"measurement": "remaining activity at 10 µM", "setting": "[26]; 10 μM", "value": "95 ± 7", "unit": "%"}, {"measurement": "remaining activity at 1 µM", "setting": "[27]; 1 μM", "value": "84 ± 11", "unit": "%"}, {"measurement": "remaining activity at 10 µM", "setting": "[27]; 10 μM", "value": "80 ± 7", "unit": "%"}, {"measurement": "remaining activity at 1 µM", "setting": "[28]; 1 μM", "value": "68 ± 8", "unit": "%"}, {"measurement": "remaining activity at 10 µM", "setting": "[28]; 10 μM", "value": "59 ± 9", "unit": "%"}, {"measurement": "remaining activity at 1 µM", "setting": "[29]; 1 μM", "value": "97 ± 3", "unit": "%"}, {"measurement": "remaining activity at 10 µM", "setting": "[29]; 10 μM", "value": "107 ± 2", "unit": "%"}, {"measurement": "remaining activity at 1 µM", "setting": "[30]; 1 μM", "value": "108 ± 14", "unit": "%"}, {"measurement": "remaining activity at 10 µM", "setting": "[30]; 10 μM", "value": "88 ± 22", "unit": "%"}, {"measurement": "remaining activity at 1 µM", "setting": "[31]; 1 μM", "value": "107 ± 6", "unit": "%"}, {"measurement": "remaining activity at 10 µM", "setting": "[31]; 10 μM", "value": "108 ± 1", "unit": "%"}, {"measurement": "remaining activity at 1 µM", "setting": "[32]; 1 μM", "value": 127, "unit": "%"}, {"measurement": "remaining activity at 10 µM", "setting": "[32]; 10 μM", "value": "127 ± 11", "unit": "%"}]}
